The text below walks through data of article PMC7532676, “Salidroside can target both P4HB-mediated inflammation and melanogenesis of the skin” (Theranostics, 2020).

The assay concerns the target prolyl 4-hydroxylase beta polypeptide (P4HB) (Homo sapiens, UniProt P07237). The assay can be described thus: surface plasmon resonance (Biacore […]). Type of assay: binding.

Sequence of prolyl 4-hydroxylase beta polypeptide (P4HB) (P07237 18-508): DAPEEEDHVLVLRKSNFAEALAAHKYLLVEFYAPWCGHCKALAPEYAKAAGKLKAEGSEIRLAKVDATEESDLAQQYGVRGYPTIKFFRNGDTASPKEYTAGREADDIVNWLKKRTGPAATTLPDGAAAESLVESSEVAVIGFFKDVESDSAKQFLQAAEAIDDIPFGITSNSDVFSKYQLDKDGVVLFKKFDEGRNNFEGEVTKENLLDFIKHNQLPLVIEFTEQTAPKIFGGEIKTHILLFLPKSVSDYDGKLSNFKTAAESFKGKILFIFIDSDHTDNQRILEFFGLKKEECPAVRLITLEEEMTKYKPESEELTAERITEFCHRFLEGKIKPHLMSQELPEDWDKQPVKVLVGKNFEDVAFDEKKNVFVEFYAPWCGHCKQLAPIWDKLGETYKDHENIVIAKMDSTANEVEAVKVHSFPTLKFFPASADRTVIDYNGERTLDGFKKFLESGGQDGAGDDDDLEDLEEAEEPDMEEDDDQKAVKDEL

Consider `OC[C@H]1O[C@@H](OCCc2ccc(O)cc2)[C@H](O)[C@@H](O)[C@@H]1O` [SAL, Salidroside], for which the Kd was 13.8 µM.
